Results from patent US20080095720A1, “Skin Benefit Compositions with a Vanilloid Receptor Antagonist” (CONOPCO, INC., D/B/A UNILEVER, priority 2006, published 2008).

Molecular target: T1, vanilloid receptor TRP-V1, VR-1 (Homo sapiens, UniProt Q8NER1)
T1 construct: endogenous in cells; host or cells: HaCaT keratinocytes
Experiment: Interleukin-1α production in HaCaT keratinocytes treated with capsaicin with or without capsazepine
Format: cell-based
Method: Keratinocyte cell lines (HaCaT) were treated with about 1 μM capsaicin (an agonist of vanilloid receptor TRP-V1, VR-1). […] Antagonists of TRP-V1 are thereby expected to be a route to reduce inflammation in the skin when the same is subjected to an irritant.

T1 sequence (Q8NER1 whole entry): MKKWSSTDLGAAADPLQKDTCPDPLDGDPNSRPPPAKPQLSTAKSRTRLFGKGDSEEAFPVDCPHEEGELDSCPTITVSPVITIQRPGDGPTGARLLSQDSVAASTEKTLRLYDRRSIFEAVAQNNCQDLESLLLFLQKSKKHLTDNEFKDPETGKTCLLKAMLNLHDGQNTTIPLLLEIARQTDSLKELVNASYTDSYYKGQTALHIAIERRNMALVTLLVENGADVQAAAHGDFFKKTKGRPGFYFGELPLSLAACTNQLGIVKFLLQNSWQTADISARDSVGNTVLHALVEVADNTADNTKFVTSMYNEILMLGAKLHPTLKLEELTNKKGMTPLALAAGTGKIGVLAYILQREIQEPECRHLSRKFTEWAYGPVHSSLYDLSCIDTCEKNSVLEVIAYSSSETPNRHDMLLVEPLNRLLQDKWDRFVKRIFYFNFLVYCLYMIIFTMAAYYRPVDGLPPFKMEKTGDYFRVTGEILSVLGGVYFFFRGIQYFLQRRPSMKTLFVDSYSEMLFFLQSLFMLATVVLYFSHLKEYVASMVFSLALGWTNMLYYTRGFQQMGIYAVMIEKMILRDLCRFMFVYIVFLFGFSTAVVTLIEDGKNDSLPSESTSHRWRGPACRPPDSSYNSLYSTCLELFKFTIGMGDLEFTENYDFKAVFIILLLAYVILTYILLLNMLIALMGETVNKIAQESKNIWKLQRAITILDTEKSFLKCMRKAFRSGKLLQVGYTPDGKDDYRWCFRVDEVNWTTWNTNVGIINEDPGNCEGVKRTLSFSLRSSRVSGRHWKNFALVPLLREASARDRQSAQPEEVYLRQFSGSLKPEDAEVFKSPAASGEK

| production of interleukin-1α (HaCaT keratinocyte cell lines, about 1 μM capsaicin, p<0.001) | interleukin-1α increase in response to capsaicin (HaCaT keratinocytes, capsaicin (1 μM) in the presence of about 3 μM capsazepine) | interleukin-1α levels (HaCaT keratinocytes, capsazepine alone) | Structure (SMILES) |
| --- | --- | --- | --- |
| significant increase |  |  | COc1cc(CNC(=O)CCCC/C=C/C(C)C)ccc1O [capsaicin] |
|  | blocked the interleukin-1α increase | no effect | Oc1cc2c(cc1O)CN(C(=S)NCCc1ccc(Cl)cc1)CCC2 [capsazepine] |
